Tested on: PCC deficient cells
Experimental: Control cells and PCC cells obtained from patients with PA and generated through CRISPR/CAS9 technology are grown in media with and without succinate supplementation and the metabolite profile of cell extracts is determined by metabolomic techniques. First, PCC deficient cells are grown in T-25 flasks in standard DMEM medium with and without supplemental succinate (0.1-2 mmol/L). Cells are harvested, lysed by sonication and intracellular concentrations of TCA cycle intermediates are measured by liquid chromatography-mass spectrometry (LC-MS)/MS. Next, flux through the TCA cycle is measured by incorporation of radiolabel from uniformly labeled ^14C-palmitate into TCA cycle intermediates after incubation with PPC deficient and control cells. PCC deficient cell lines are grown in DMEM complete media and transferred to 6-well plates at a seeding density of ˜200,000 cells/well. The media in the wells is changed after 24 hours to DMEM media containing 5% dialyzed fetal bovine serum (FBS). After approximately one hour, the first time point (180 minutes) receives DMEM 5% dialyzed FBS containing universally labeled palmitate with ^13C […]. The cells are incubated at 37° C., 4% CO2 for the following time points: 180 minutes, 60 minutes, 30 minutes, 10 minutes and 0 minutes. The 0 minute time point receives no isotopic labeling.

O=C(O)CCC(=O)O [succinate]
decreased level of TCA cycle intermediates (cell lines from patients with PA or MMA, succinate supplementation 0.1-2 mmol/L): expected to be reversed
impaired incorporation of label from palmitate through the TCA cycle into protein (succinate supplementation): expected to be reversed

Reference: patent publication US12290500B2, “Anaplerotic agents for treatment of disorders of propionate and long chain fat metabolism” (University of Pittsburgh—Of the Commonwealth System of …, priority 2016, dated 2025)
